Read-outs that look alike come from different tables or passages of the source.
Legend:
Assay type in all cases: cell-based
ML1 channel = molecular target: T1, ML1 channel (Homo sapiens, UniProt Q9GZU1); assay: Endolysosomal electrophysiology (whole-endolysosome patch-clamp)
T1 construct: host or cells: unnamed cells treated with vacuolin-1; isolated enlarged endolysosomes
Method: Endolysosomal electrophysiology was performed in isolated endolysosomes using a modified patch-clamp method. Briefly, cells were treated with 1 μM vacuolin-1 for 2-5 h to increase the size of endosomes and lysosomes. Whole-endolysosome recordings were performed on isolated enlarged LELs. The bath (internal/cytoplasmic) solution contained 140 mM K-gluconate, 4 mM NaCl, 1 mM EGTA, 2 mM Na2-ATP, 2 mM MgCl2, 0.39 mM CaCl2), 0.2 mM GTP and 10 mM HEPES (pH adjusted with KOH to 7.2; free [Ca^2+]i˜100 nM based on the Maxchelator software (http://maxchelator.stanford.edu/)). The pipette (luminal) solution consisted of a ‘Low pH Tyrode's solution with 145 mM NaCl, 5 mM KCl, 2 mM CaCl2), 1 mM MgCl2, 10 mM HEPES, 10 mM MES and 10 mM glucose (pH 4.6). All bath solutions were applied via a perfusion system to achieve a complete solution exchange within a few seconds. Data were collected using an Axopatch 2A patch clamp amplifier, Digidata 1440 and pClamp 10.0 software (Axon Instruments). Whole-cell currents were digitized at 10 kHz and filtered at 2 kHz. All experiments were conducted at room temperature (21-23° C.), and all recordings were analyzed with pClamp 10.0 and Origin 8.0 (OriginLab, Northampton, Mass., USA). ML1 channel activity was induced by synthetic agonists ML-SA1 or […], and inhibited by ML-S13 or ML-S14.
In this electrophysiology assays, compounds were tested with both basal and agonist-induced ML1 currents. Examples B11, B11a, B11b, B40, B41, B44, B5, B47, B48, B49, B50, B51, B54, B57, B58, B59, B62, B63, B68, B69, B71, B72, B75, B75, and B76 were tested with basal ML1 currents. […] In particular, Examples B11, B11a and B11b inhibited basal ML1 currents with IC50<100 nM. Examples B11, B11a and B11b are shown below. Examples B1-4, B2-1, B-2-2, B2-3, B2-4, 3-4, B5, B6-2, B9-4, B-10, B-10-4, B11, B12, B13, B14, B15, B16, B18, B19, B20, B21, B22, B23, B25, B26, B27, B28, B29, B30, B32, B34, B40, B41, B44, B45, B46, B47, B48, B49, B50, B51, B52, B59, and B66 were tested in ML1 currents activated by ML1 agonists (ML-SA1 or ML-SA5). […] In particular, B11 inhibited the ML-SA1-activated currents with IC50<1,000 nM. Example B11 is shown below.

cultured parietal cells = assay: Gastric acid secretion assay (histamine-stimulated VAC formation)
Method: Acid secretion was measured in cultured parietal cells upon histamine stimulation. Briefly, after mucosal digestion of isolated glands, supernatants were pelleted by centrifugation at 200×g, washed three times with HEPES-MEM, and re-suspended in Medium A. Approximately 70% of the total gastric cells suspended in Medium A were parietal cells. The cells were plated onto Matrigel-coated 18-mm round coverslips or 35-mm dishes and incubated at 37° C. In cultured parietal cells, upon secretagogue stimulation, apical canalicular membranes are engulfed into the cell to form multiple actin-wrapped vacuoles known as vacuolar apical compartments (VACs), which remain separate from the basolateral membrane and free TVs in the cytosol (Nakada, S. L., Crothers, J. M., Jr., Machen, T. E., and Forte, J. G. (2012). Apical vacuole formation by gastric parietal cells in primary culture: effect of low extracellular Ca2+. American journal of physiology Cell physiology 303, C1301-1311.). […] In resting WT cells, small (diameter <2 μm) VACs were observed occasionally with a total surface area <10 μm^2. VACs formed within 10-20 min after bath application of histamine and then fused together to generate one or a few large VACs (up to 8 μm in diameter; total VAC surface area >50 μm^2). The apical membrane vacuole surface area during resting and stimulated states was measured for all VACs that were visible in multiple (3-6) Z-cross sections. Data were analyzed in ImageJ (NIH).
In this acid secretion assay, histamine-stimulated VAC formation was abolished by ML-S4 at 10 μM (Zhang X, Cheng X, Yu L, Yang J, Calvo R, Patnaik S, Hu X, Gao Q, Yang M, Lawas M, Delling M, Marugan J, Ferrer M, and Xu H. 2016, PMID: 27357649).

ML1 = molecular target: T2, ML1 (UniProt Q99J21); assay: Lysosomal Ca2+ imaging in Tet-On HEK-GCaMP3-ML1 cells; conditions: zero Ca2+ solution, ML-SA1 trigger, read-out: inhibition of ML-SA1-induced lysosomal Ca2+ release, IC50
T2 construct: fused on or other part: GCaMP3 (genetically encoded Ca2+ indicator) fused to ML1 as the reporter handle; in the published construct it sits at the N-terminus
Method: GCaMP3-ML1 expression was induced in Tet-On HEK-GCaMP3-ML1 cells 20-24 h prior to experiments using […] doxycycline. GCaMP3-ML1 fluorescence was monitored at an excitation wavelength of 470 nm (F470) using an EasyRatio Pro system (PTI). Cells were bathed in Tyrode's solution containing 145 mM NaCl, 5 mM KCl, 2 mM CaCl2), 1 mM MgCl2, 10 mM Glucose, and 20 mM Hepes (pH 7.4). Lysosomal Ca^2+ release was measured in a zero Ca^2+ solution containing 145 mM NaCl, 5 mM KCl, 3 mM MgCl2, 10 mM glucose, 1 mM EGTA, and 20 mM HEPES (pH 7.4). Ca^2+ concentration in the nominally free Ca^2+ solution is estimated to be 1-10 μM. With 1 mM EGTA, the free Ca^2+ concentration is estimated to be <10 nM based on the Maxchelator software (http://maxchelator.stanford.edu/). Experiments were carried out 0.5 to 6 hrs after plating. ML1-mediated lysosomal Ca^2+ release was triggered by synthetic agonists ML-SA1, and inhibited by ML-S13 and aforementioned testing compounds.

[1] = basal ML1 currents, isolated enlarged endolysosomes, read-out: inhibition of basal ML1 currents, IC50

T1 sequence (Q9GZU1 whole entry): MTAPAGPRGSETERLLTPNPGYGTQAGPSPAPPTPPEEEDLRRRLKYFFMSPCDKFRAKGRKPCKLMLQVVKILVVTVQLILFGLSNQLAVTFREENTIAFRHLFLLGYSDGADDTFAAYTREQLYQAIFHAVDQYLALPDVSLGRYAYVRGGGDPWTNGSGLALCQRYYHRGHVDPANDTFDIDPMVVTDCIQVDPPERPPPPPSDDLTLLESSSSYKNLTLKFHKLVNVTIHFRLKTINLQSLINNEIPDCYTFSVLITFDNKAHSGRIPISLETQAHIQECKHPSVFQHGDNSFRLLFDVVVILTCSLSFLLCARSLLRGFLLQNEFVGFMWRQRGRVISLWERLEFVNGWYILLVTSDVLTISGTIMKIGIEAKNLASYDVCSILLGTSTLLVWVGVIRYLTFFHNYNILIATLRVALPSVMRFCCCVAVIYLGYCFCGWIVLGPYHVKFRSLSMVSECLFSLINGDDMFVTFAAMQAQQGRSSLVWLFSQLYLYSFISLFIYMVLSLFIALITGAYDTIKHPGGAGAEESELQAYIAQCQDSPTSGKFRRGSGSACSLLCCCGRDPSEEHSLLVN

SMILES | IC50 (ML1 channel; [1]) [nM] | IC50 (ML1 channel; currents activated by ML1 agonist ML-SA1, read-out: inhibition of ML-SA1-activated ML1 currents, IC50) [nM] | histamine-induced VAC formation (cultured parietal cells; at 0.5 μM) | histamine-induced VAC formation (cultured parietal cells; at 2 μM) | IC50 (ML1) [nM]
Cc1ccc(S(=O)(=O)N2c3cc(F)ccc3CCC2CCc2ccc(Cl)cc2F)cc1 (stereo not drawn) [Example B11, 2-(4-Chloro-2-fluorophenethyl)-7-fluoro-1-tosyl-1,2,3,4-tetrahydroquinoline] | < 100 | < 1000 | significantly inhibited | abolished | –
Cc1ccc(S(=O)(=O)N2c3cc(F)ccc3CC[C@@H]2CCc2ccc(Cl)cc2F)cc1 [Example B11a] | < 100 | – | – | – | –
Cc1ccc(S(=O)(=O)N2c3cc(F)ccc3CC[C@H]2CCc2ccc(Cl)cc2F)cc1 [Example B11b] | < 100 | – | significantly inhibited | abolished | < 1000

Source: patent US20200352921A1, “ARYL-SULFONAMIDE AND ARYL-SULFONE DERIVATIVES AS TRPML MODULATORS” (CalyGene Biotechnolgy, Inc., priority 2017, published 2020)
